Data: patent publication US20070248705A1, “Agents for Activating the Transcription Factor Nrf2 and Foods Having Such Function” (KIRIN BEER KABUSHIKI KAISHA, priority 2004, published 2007)
“Also recorded” adds a separate entry of the source.

Key:
[1] = tested on: quinone reductase (QR) activity in mouse hepatoma Hepa1c1c7 cells; experiment: Induction of quinone reductase (QR) activity; format: cell-based; conditions: Hepa1c1c7 cells, 0.6, 1.7, 5, and 15 μM, 48 hours
Protocol: It has been known that quinone reductase (QR) activity is increased by increasing the expression of NAD(P)H:quinone oxidoreductase (NQO1) by Nrf2 activation (Proc Natl Acad Sci USA. 101, 10446-51 (2004)). Accordingly, isohumulones were allowed to act on mouse hepatoma Hepa1c1c7 cells (available from Dainippon Pharmaceutical Co., Ltd.) to examine whether the QR activity was induced.
The QR activity was measured in accordance with the method described in Analytical Biochemistry 169, 328-336 (1988).
A mouse hepatoma cell line Hepa1c1c7 was seeded on a 96-well plate (7-10×10^3 cells/well), 50 μl each of an α-MEM medium (Invitrogen) supplemented with 10% fetal bovine serum (HyClone) and penicillin-streptomycin (100 units/ml and 100 μg/ml, respectively; Sigma) was added, and the plate was incubated at […] in an atmosphere of 5% CO2 overnight. Next, the culture medium was replaced with a medium containing isomerized hop extract individually at a concentration of 1.9, 5.6, 16.7, or 50 μg/ml, or with a medium containing humulone (H), cohumulone (cH), adhumulone (aH), isohumulone (IH), isohumulone (IcH), or isohumulone (IaH) individually at a concentration of 0.6, 1.7, 5, and 15 μM and the plate was further incubated for 48 hours. Then, the cells in each well were broken using 0.08% digitonin and a 2 mM EDTA solution and absorption at 610 nm was measured by a menadione-formazan system using a microplate reader (Power Wave 200, Bio-Tek Instruments).
The QR inducing activity was calculated as a relative activity setting the activity of cells without addition to be 1 (n=3, mean±standard variation). Sulforaphane (Sul, available from Sigma) was used as a positive control.

[2] = tested on: CD36; experiment: Expression of genes controlled by Nrf2 in RAW264.7: CD36; format: cell-based, mouse; conditions: RAW264.7, 3 μM, positive control
Protocol: (§1) A mouse macrophage cell line RAW264.7 was seeded on a φ60 mm dish (9×10^5 cells), 2 ml of a D-MEM medium (Invitrogen) supplemented with 10% fetal bovine serum (HyClone) and penicillin-streptomycin (100 units/ml and 100 μg/ml, respectively; Sigma) was added, and the dish was incubated at 37° C. in an atmosphere of 5% CO2 for 2 days. The medium was replaced with a fresh medium containing individual samples and incubation was continued for another 20 hours. Then, the total RNA was prepared using TRIzol (Invitrogen) and purified using a RNeasy Mini kit (Qiagen) and an RNase-free DNase set (Qiagen). Further, cDNA was synthesized from 5 μg of the purified total RNA using a Thermo Script RT-PCR system (Invitrogen), and the amount of mRNA expression of various genes was determined using a FastStart DNA Master SYBR Green I kit (Roche) and a Light Cycler (Roche).
(§2) The amount of expression of the various genes was corrected by the amount of expression of the housekeeping gene PO and calculated as a relative expression level (n=2, mean±standard deviation). […]

[3] = tested on: catalase 1 (CAT1); experiment: Expression of genes controlled by Nrf2 in RAW264.7: CAT1; format: cell-based, mouse; conditions: RAW264.7, 3 μM, positive control
Protocol: as §1, §2

[4] = tested on: thioredoxin reductase 1 (TXNRD1); experiment: Expression of genes controlled by Nrf2 in RAW264.7: TXNRD1; format: cell-based, mouse; conditions: RAW264.7, 3 μM, positive control
Protocol: as §1, §2

[5] = tested on: heme oxygenase 1 (HO1); experiment: Expression of genes controlled by Nrf2 in RAW264.7: HO1; format: cell-based, mouse; conditions: RAW264.7, 3 μM, positive control
Protocol: as §1, §2

[6] = tested on: glutathione S-transferase mu1 (GSTM1); experiment: Expression of genes controlled by Nrf2 in RAW264.7: GSTM1; format: cell-based, mouse; conditions: RAW264.7, 3 μM, positive control
Protocol: as §1, §2

[7] = tested on: glutathione S-transferase pi2 (GSTP2); experiment: Expression of genes controlled by Nrf2 in RAW264.7: GSTP2; format: cell-based, mouse; conditions: RAW264.7, 3 μM, positive control
Protocol: as §1, §2

[8] = tested on: NAD(P)H:quinone oxidoreductase (NQO1); experiment: Expression of genes controlled by Nrf2 in RAW264.7: NQO1; format: cell-based, mouse; conditions: RAW264.7, 3 μM, positive control
Protocol: as §1, §2

[9] = tested on: glutamate cysteine ligase modifier subunit (GCLM); experiment: Expression of genes controlled by Nrf2 in RAW264.7: GCLM; format: cell-based, mouse; conditions: RAW264.7, 3 μM, positive control
Protocol: as §1, §2

[10] = tested on: glucose-6-phosphate dehydrogenase 2 (G6PD2); experiment: Expression of genes controlled by Nrf2 in RAW264.7: G6PD2; format: cell-based, mouse; conditions: RAW264.7, 3 μM, positive control
Protocol: as §1, §2

[11] = tested on: glucose-6-phosphate dehydrogenase, X-linked (G6PDX); experiment: Expression of genes controlled by Nrf2 in RAW264.7: G6PDX; format: cell-based, mouse; conditions: RAW264.7, 3 μM, positive control
Protocol: as §1, §2

[12] = tested on: mouse macrophage cell line RAW264.7; experiment: Amount of intracellular glutathione; format: cell-based; conditions: RAW264.7, 3 μM, positive control
Protocol: A mouse macrophage cell line RAW264.7 was seeded on a φ60 mm dish (7×10^5 cells), 2 ml of a D-MEM medium (Invitrogen) supplemented with 10% fetal bovine serum (HyClone) and penicillin-streptomycin (100 units/ml and 100 μg/ml, respectively; Sigma) was added, and the dish was incubated at 37° C. in an atmosphere of 5% CO2 for 2 days. The medium was replaced with a fresh medium containing individual samples and incubation was continued for another 20 hours. The samples added were isohumulone (IH(F)) and isohumulone (IcH(G)) at a concentration of 25 μM. The cells were recovered, broken by ultrasonication, and centrifuged to obtain the supernatant, and the amount of the total intracellular glutathione was measured using a glutathione assay kit (Cayman Chemical) (n=2, mean±standard deviation). As a positive control, 15dPGJ2 (Cayman Chemical) was used.

[13] = tested on: mouse macrophage cell line RAW264.7; experiment: Suppressive action on cell death by hydrogen peroxide; format: cell-based; conditions: RAW264.7, 3 μM, positive control
Protocol: A mouse macrophage cell line RAW264.7 (6×10^4 cells/well) was incubated on a 96-well plate in 100 μl of a D-MEM medium (Invitrogen) containing individual samples, 10% fetal bovine serum (HyClone), and penicillin-streptomycin (100 units/ml and 100 μg/ml, respectively; Sigma) at 37° C. in an atmosphere of 5% CO2 overnight. The samples added were isohumulone (IH(F)) and isohumulone (IcH(G)) at a concentration of 25 μM. Hydrogen peroxide (Wako Pure Chemical Industries) was added hereto at a final concentration of 0.8 or 1.0 mM and incubation was continued for another 2 hours. Then, adsorption at 440 nm was measured using a microplate reader (Power Wave 200, Bio-Tek Instruments) with a cell growth reagent WST-1 (Roche Diagnostics). The cell survival rate for each sample was calculated by setting the value without hydrogen peroxide as 100% (n=2, mean±standard variation). As a positive control, 15dPGJ2 (Cayman Chemical) was used.

[14] = tested on: TNF-α; experiment: Suppression of TNF-α production by macrophages (TPA and IFN-γ); format: cell-based, mouse; conditions: RAW264.7, TPA 400 nM and IFN-γ 10 units/ml, positive control
Protocol: A mouse macrophage cell line RAW264.7 (4×10^4 cells/well) was seeded on a 96-well plate, […] of a D-MEM medium (Invitrogen) containing each sample, 10% fetal bovine serum (HyClone), and penicillin-streptomycin (100 units/ml and 100 μg/ml, respectively; Sigma) was added, and the plate was incubated at 37° C. in an atmosphere of 5% CO2 for 4 hours. Then 150 μl of a medium containing TPA (phorbol 12-tetradecanoate 13-acetate, Sigma), mouse IFN-γ (interferon-γ, eBioscience), and each sample was added and incubation was carried out for 24 hours. TPA and IFN-γ were added at a final concentration of 400 nM and 10 units/ml, respectively. As samples, isomerized hop extract was added at a concentration of 5, 10, 20, and 30 μ/ml and isohumulone (IH(F)) and isohumulone (IcH(G)) were added individually at a concentration of 5, 10, 20, and 40 μM.
After completing incubation, the amount of TNF-α in the culture fluid was measured using a mouse TNF-α ELISA kit(eBioscience). The amount of TNF-α was expressed as a relative value by setting the value for the control as 100% (n=3, mean±standard variation). As a positive control, 15dPGJ2 (Cayman Chemical) was used.

[15] = tested on: ICAM-1; experiment: ICAM-1 expression in vascular endothelial cells (HAEC), TNF-α stimulation, flow cytometry; format: cell-based, human; conditions: TNF-α 1.25 ng/ml
Protocol: Normal human aorta endothelial cells (HAEC, available from Cambrex) were cultured in a φ100 mm dish using 10 ml of endothelial cell medium kit-2 (Takara Shuzo) at 37° C. in an atmosphere of 5% CO2. Here, 30 μg/ml isomerized hop extract, 10 μM sulforaphane (Sul), or 10 mM N-acetyl cysteine (NAC) was allowed to act overnight. Next, after stimulating with the addition of human TNF-α (ProSpec-Tany TechnoGene) at a final concentration of 1.25 ng/ml), the cells were detached using a reagent for subculturing (Takara Shuzo) and flow cytometry analysis was carried out. Here, biotin anti-human ICAM antibody or biotin anti-human VCAM antibody (available from eBioscience) was used as a primary antibody and PE conjugated streptavidin (available from eBioscience) was used as a secondary antibody. A flow cytometer used was a FACSort analyzer (Becton Dickinson).

SMILES: CC(C)=CCC(=O)C1(O)C(O)=C(C(=O)CC(C)C)C(=O)C1CC=C(C)C (stereo not drawn) [IH (H), isohumulone]
- QR inducing activity [1]: activity was higher in isohumulones having a higher trans form content

SMILES: CCCCC/C=C/C=C1/C(=O)C=C[C@@H]1C/C=C\CCCC(=O)O [15dPGJ2, 15-deoxy-D12,14-prostaglandin J2, reference compound]
- expression of CD36 [2]: augmented the expression
- expression of CAT1 [3]: augmented the expression
- expression of TRNRD1 [4]: augmented the expression
- expression of HO1 [5]: augmented the expression
- expression of GSTM1 [6]: augmented the expression
- expression of GSTP2 [7]: augmented the expression
- expression of NQO1 [8]: augmented the expression
- expression of GCLM [9]: augmented the expression
- expression of G6PD2 [10]: augmented the expression
- expression of G6PDX [11]: augmented the expression
- amount of the total intracellular glutathione [12]: Increased the amount of the total intracellular glutathione
- cell death by hydrogen peroxide (cell survival rate) ([13]; hydrogen peroxide 0.8 mM): suppressed cell death
- cell death by hydrogen peroxide (cell survival rate) ([13]; hydrogen peroxide 1.0 mM): suppressed cell death
- TNF-α production [14]: concentration-dependently suppressed

SMILES: CC(C)=CCC(=O)C1(O)C(O)=C(C(=O)CC(C)C)C(=O)C1CC=C(C)C (stereo not drawn) [IH, isohumulone]
- QR inducing activity [1]: Concentration-dependent QR inducing activity; also recorded: higher activity than isohumulone (IaH)

SMILES: CC(=O)N[C@@H](CS)C(=O)O [N-acetyl cysteine]
- expression of ICAM-1 ([15]; 10 mM overnight): Such changes are also recognized

SMILES: CC(C)=CCC(=O)C1(O)C(O)=C(C(=O)C(C)C)C(=O)C1CC=C(C)C (stereo not drawn) [IcH]
- QR inducing activity [1]: higher activity than isohumulone (IaH)
- QR inducing activity ([1]; listed as ICH): Concentration-dependent QR inducing activity

SMILES: C[S+]([O-])CCCCN=C=S (stereo not drawn) [sulforaphane]
- expression of ICAM-1 ([15]; 10 μM overnight): Such changes are also recognized

SMILES: CCC(C)C(=O)C1=C(O)C(O)(C(=O)CC=C(C)C)C(CC=C(C)C)C1=O (stereo not drawn) [IaH]
- QR inducing activity [1]: Concentration-dependent QR inducing activity

SMILES: CC(C)=CCC(=O)C1(O)C(O)=C(C(=O)CC(C)C)C(=O)C1CC=C(C)C (stereo not drawn) [IH (E), isohumulone]
- QR inducing activity [1]: activity was higher in isohumulones having a higher trans form content

SMILES: CC(C)=CCC1=C(O)C(O)(CC=C(C)C)C(=O)C(C(=O)C(C)C)=C1O (stereo not drawn) [cohumulone, reference compound]
- QR inducing activity [1]: no clear change

SMILES: CCC(C)C(=O)C1=C(O)C(CC=C(C)C)=C(O)C(O)(CC=C(C)C)C1=O (stereo not drawn) [adhumulone, reference compound]
- QR inducing activity [1]: no clear change
